The values below come from ChEMBL document CHEMBL1140819, “Protected aminooxyprolines for expedited library synthesis: application to Tsg101-directed proline-oxime containing peptides” (Bioorg Med Chem Lett, 2008).

pIC50: −log10 of the molar value. *1 amine or outer side, *2 acyl side, *3 side chain or, on linkers, in order; H or OH if unused. Where a SMILES comes first, the peptide text is derived from it. [ ]: non-standard residue; d: D form. The star is where a group is joined. ξ: configuration not given here. Fluorescein(5-NHCS) = O=C1OC2(c3ccc(O)cc3Oc3cc(O)ccc32)c2cc(NC(=S)*)ccc21; X19 = O=C([C@@H]1C[C@@H](O/N=C\c2ccc([N+](=O)[O-])cc2)CN1[*:1])[*:2]; X34 = O=C([C@@H]1[C@@H](O/N=C\c2ccc([N+](=O)[O-])o2)CCN1[*:1])[*:2]; X47 = O=C([C@@H]1C[C@@H](O/N=C\c2ccc([N+](=O)[O-])o2)CN1[*:1])[*:2]; X48 = O=C([C@@H]1C[C@@H](O/N=C\c2c(F)c(F)c(F)c(F)c2F)CN1[*:1])[*:2]; X27 = N#Cc1ccc(/C=N\O[C@@H]2C[C@@H](C(=O)[*:2])N([*:1])C2)cc1; X14 = CCCCCCCC/C=N\O[C@@H]1C[C@@H](C(=O)[*:2])N([*:1])C1; X44 = O=C([C@@H]1[C@@H](O/N=C\c2ccoc2)CCN1[*:1])[*:2]; X35 = O=C([C@@H]1C[C@H](O/N=C\c2ccoc2)CN1[*:1])[*:2]; X6 = O=C([C@@H]1C[C@@H](O/N=C\c2ccoc2)CN1[*:1])[*:2]; X2 = CCCCC/C=N\O[C@H]1C[C@@H](C(=O)[*:2])N([*:1])C1; ξPip = O=C(O)C1CCCCN1; Ava = NCCCCC(=O)O

The assay concerns the target T1, Tumor susceptibility gene 101 protein (Homo sapiens, UniProt Q99816).
T1 sequence (Q99816 whole entry): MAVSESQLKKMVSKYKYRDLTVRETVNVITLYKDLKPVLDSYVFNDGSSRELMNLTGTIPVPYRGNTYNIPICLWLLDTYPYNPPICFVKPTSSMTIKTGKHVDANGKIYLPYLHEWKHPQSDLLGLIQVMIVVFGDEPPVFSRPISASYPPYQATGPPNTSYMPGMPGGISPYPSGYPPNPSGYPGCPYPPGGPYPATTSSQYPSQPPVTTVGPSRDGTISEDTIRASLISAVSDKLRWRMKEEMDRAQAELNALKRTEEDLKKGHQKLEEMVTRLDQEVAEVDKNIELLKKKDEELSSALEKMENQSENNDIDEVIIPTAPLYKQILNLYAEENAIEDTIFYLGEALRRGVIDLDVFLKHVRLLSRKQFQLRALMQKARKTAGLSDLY
As to the kind of experiment: Binding affinity to Tsg101.
`C[C@H](NC(=O)[C@@H](NC(=O)[C@@H]1CCCN1C(=O)[C@H](CCC(=O)O)NC(=O)[C@@H]1CCCN1C(=O)CCCCNC(=S)Nc1ccc2c(c1)C1(OC2=O)c2ccc(O)cc2Oc2cc(O)ccc21)[C@@H](C)O)C(=O)N1CCCCC1C(=O)N1C[C@H](O/N=C\c2ccoc2)C[C@H]1C(=O)N[C@@H](CCC(=O)O)C(=O)N[C@@H](CCC(=O)O)C(N)=O` (stereo not given in full) ({Fluorescein(5-NHCS)-Ava}-PEPTA[ξPip][X6]EE-NH2) gave a pIC50 of 4.52.

As for `C[C@H](NC(=O)[C@@H](NC(=O)[C@@H]1CCCN1C(=O)[C@H](CCC(=O)O)NC(=O)[C@@H]1CCCN1C(=O)CCCCNC(=S)Nc1ccc2c(c1)C1(OC2=O)c2ccc(O)cc2Oc2cc(O)ccc21)[C@@H](C)O)C(=O)N1CCCCC1C(=O)N1CC[C@H](O/N=C\c2ccc([N+](=O)[O-])o2)[C@H]1C(=O)N[C@@H](CCC(=O)O)C(=O)N[C@@H](CCC(=O)O)C(N)=O` (stereo not given in full) ({Fluorescein(5-NHCS)-Ava}-PEPTA[ξPip][X34]EE-NH2), the pIC50 is 4.74. Take `C[C@H](NC(=O)[C@@H](NC(=O)[C@@H]1CCCN1C(=O)[C@H](CCC(=O)O)NC(=O)[C@@H]1CCCN1C(=O)CCCCNC(=S)Nc1ccc2c(c1)C1(OC2=O)c2ccc(O)cc2Oc2cc(O)ccc21)[C@@H](C)O)C(=O)N1CCCCC1C(=O)N1C[C@H](O/N=C\c2c(F)c(F)c(F)c(F)c2F)C[C@H]1C(=O)N[C@@H](CCC(=O)O)C(=O)N[C@@H](CCC(=O)O)C(N)=O` (stereo not given in full) ({Fluorescein(5-NHCS)-Ava}-PEPTA[ξPip][X48]EE-NH2): the pIC50 is 4.49. As for `C[C@H](NC(=O)[C@@H](NC(=O)[C@@H]1CCCN1C(=O)[C@H](CCC(=O)O)NC(=O)[C@@H]1CCCN1C(=O)CCCCNC(=S)Nc1ccc2c(c1)C1(OC2=O)c2ccc(O)cc2Oc2cc(O)ccc21)[C@@H](C)O)C(=O)N1CCCCC1C(=O)N1C[C@H](O/N=C\c2ccc([N+](=O)[O-])cc2)C[C@H]1C(=O)N[C@@H](CCC(=O)O)C(=O)N[C@@H](CCC(=O)O)C(N)=O` (stereo not given in full) ({Fluorescein(5-NHCS)-Ava}-PEPTA[ξPip][X19]EE-NH2), the pIC50 was 4.68. Compound `C[C@H](NC(=O)[C@@H](NC(=O)[C@@H]1CCCN1C(=O)[C@H](CCC(=O)O)NC(=O)[C@@H]1CCCN1C(=O)CCCCNC(=S)Nc1ccc2c(c1)C1(OC2=O)c2ccc(O)cc2Oc2cc(O)ccc21)[C@@H](C)O)C(=O)N1CCCCC1C(=O)N1C[C@H](O/N=C\c2ccc(C#N)cc2)C[C@H]1C(=O)N[C@@H](CCC(=O)O)C(=O)N[C@@H](CCC(=O)O)C(N)=O` (stereo not given in full) ({Fluorescein(5-NHCS)-Ava}-PEPTA[ξPip][X27]EE-NH2) had a pIC50 of 4.70. As for `CCCCCCCC/C=N\O[C@@H]1C[C@@H](C(=O)N[C@@H](CCC(=O)O)C(=O)N[C@@H](CCC(=O)O)C(N)=O)N(C(=O)C2CCCCN2C(=O)[C@H](C)NC(=O)[C@@H](NC(=O)[C@@H]2CCCN2C(=O)[C@H](CCC(=O)O)NC(=O)[C@@H]2CCCN2C(=O)CCCCNC(=S)Nc2ccc3c(c2)C2(OC3=O)c3ccc(O)cc3Oc3cc(O)ccc32)[C@@H](C)O)C1` (stereo not given in full) ({Fluorescein(5-NHCS)-Ava}-PEPTA[ξPip][X14]EE-NH2), the figure is 4.27; as for `CCCCC/C=N\O[C@H]1C[C@@H](C(=O)N[C@@H](CCC(=O)O)C(=O)N[C@@H](CCC(=O)O)C(N)=O)N(C(=O)C2CCCCN2C(=O)[C@H](C)NC(=O)[C@@H](NC(=O)[C@@H]2CCCN2C(=O)[C@H](CCC(=O)O)NC(=O)[C@@H]2CCCN2C(=O)CCCCNC(=S)Nc2ccc3c(c2)C2(OC3=O)c3ccc(O)cc3Oc3cc(O)ccc32)[C@@H](C)O)C1` (stereo not given in full) ({Fluorescein(5-NHCS)-Ava}-PEPTA[ξPip][X2]EE-NH2), 4.38; as for `C[C@H](NC(=O)[C@@H](NC(=O)[C@@H]1CCCN1C(=O)[C@H](CCC(=O)O)NC(=O)[C@@H]1CCCN1C(=O)CCCCNC(=S)Nc1ccc2c(c1)C1(OC2=O)c2ccc(O)cc2Oc2cc(O)ccc21)[C@@H](C)O)C(=O)N1CCCCC1C(=O)N1C[C@H](O/N=C\c2ccc([N+](=O)[O-])o2)C[C@H]1C(=O)N[C@@H](CCC(=O)O)C(=O)N[C@@H](CCC(=O)O)C(N)=O` (stereo not given in full) ({Fluorescein(5-NHCS)-Ava}-PEPTA[ξPip][X47]EE-NH2), 4.92. As for `C[C@H](NC(=O)[C@@H](NC(=O)[C@@H]1CCCN1C(=O)[C@H](CCC(=O)O)NC(=O)[C@@H]1CCCN1C(=O)CCCCNC(=S)Nc1ccc2c(c1)C1(OC2=O)c2ccc(O)cc2Oc2cc(O)ccc21)[C@@H](C)O)C(=O)N1CCCCC1C(=O)N1C[C@@H](O/N=C\c2ccoc2)C[C@H]1C(=O)N[C@@H](CCC(=O)O)C(=O)N[C@@H](CCC(=O)O)C(N)=O` (stereo not given in full) ({Fluorescein(5-NHCS)-Ava}-PEPTA[ξPip][X35]EE-NH2), the figure is 4.32. The compound `C[C@H](NC(=O)[C@@H](NC(=O)[C@@H]1CCCN1C(=O)[C@H](CCC(=O)O)NC(=O)[C@@H]1CCCN1C(=O)CCCCNC(=S)Nc1ccc2c(c1)C1(OC2=O)c2ccc(O)cc2Oc2cc(O)ccc21)[C@@H](C)O)C(=O)N1CCCCC1C(=O)N1CC[C@H](O/N=C\c2ccoc2)[C@H]1C(=O)N[C@@H](CCC(=O)O)C(=O)N[C@@H](CCC(=O)O)C(N)=O` (stereo not given in full) ({Fluorescein(5-NHCS)-Ava}-PEPTA[ξPip][X44]EE-NH2) showed a pIC50 of 4.70.

Usually pIC50 stands for the negative decadic logarithm of the IC50, by convention in mol/L. Lower therefore signals a large IC50.
